Key:
mouse TAAR1 = mouse TAAR1 (Mus musculus (Mouse), UniProt Q923Y8); assay: Radioligand binding assay on mouse TAAR1
Procedure: Membrane Preparation and Radioligand Binding.
HEK-293 cells stably expressing mouse TAAR1 were maintained at 37° C. and 5% CO2 in DMEM high glucose medium, containing fetal calf serum (10%, heat inactivated for 30 min at 56° C.), penicillin/streptomycin (1%), and 375 μg/ml geneticin (Gibco). Cells were released from culture flasks using trypsin/EDTA, harvested, washed twice with ice-cold PBS (without Ca^2+ and Mg^2+), pelleted at 1,000 rpm for 5 min at 4° C., frozen and stored at −80° C. Frozen pellets were suspended in 20 ml HEPES-NaOH (20 mM, pH 7.4) containing 10 mM EDTA and homogenized with a Polytron (PT 6000, Kinematica) at 14,000 rpm for 20 s. The homogenate was centrifuged at 48,000×g for 30 min at 4° C. Subsequently, the supernatant was removed and discarded, and the pellet resuspended in 20 ml HEPES-NaOH (20 mM, pH 7.4) containing 0.1 mM EDTA using the Polytron (20 s at 14,000 rpm). This procedure was repeated and the final pellet resuspended in HEPES-NaOH containing 0.1 mM EDTA and homogenized using the Polytron. Typically, aliquots of 2 ml membrane portions were stored at −80° C. With each new membrane batch the dissociation constant (Kd) was determined via a saturation curve. […] Nonspecific binding was defined as the amount of ^3[H]—(S)-4-[(ethyl-phenyl-amino)-methyl]-4,5-dihydro-oxazol-2-ylamine bound in the presence of 10 M unlabeled ligand. All compounds were tested at a broad range of concentrations (10 pM to 10 μM) in duplicates. […] The 96 deep well plates were incubated for 1 hr at 4° C. Incubations were terminated by rapid filtration through Unifilter-96 plates (Packard Instrument Company) and glass filters GF/C (Perkin Elmer) presoaked for 1 hr in polyethylenimine (0.3%) and washed 3 times with 1 ml of cold binding buffer. After addition of 45 μl of Microscint 40 (PerkinElmer) the Unifilter-96 plate was sealed and after 1 hr the radioactivity counted using a TopCount Microplate Scintillation Counter (Packard Instrument Company).

rat TAAR1 = rat TAAR1 (Rattus norvegicus (Rat), UniProt Q923Y9); assay: Radioligand binding assay on rat TAAR1; details: read-out: Ki(μM) rat; rat TAAR1, HEK-293 membranes, second value of cell pair mouse/rat
Chain of rat TAAR1 (Q923Y9 whole entry): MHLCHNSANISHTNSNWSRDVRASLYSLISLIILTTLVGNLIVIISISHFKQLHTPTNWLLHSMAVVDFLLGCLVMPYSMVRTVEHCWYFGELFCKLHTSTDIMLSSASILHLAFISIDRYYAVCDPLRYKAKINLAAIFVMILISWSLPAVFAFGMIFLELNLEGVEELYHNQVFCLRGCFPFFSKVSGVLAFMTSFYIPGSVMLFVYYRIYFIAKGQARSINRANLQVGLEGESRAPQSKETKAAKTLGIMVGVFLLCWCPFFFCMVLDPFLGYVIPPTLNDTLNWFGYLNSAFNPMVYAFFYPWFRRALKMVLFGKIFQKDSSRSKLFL

Chain of mouse TAAR1 (Q923Y8 whole entry): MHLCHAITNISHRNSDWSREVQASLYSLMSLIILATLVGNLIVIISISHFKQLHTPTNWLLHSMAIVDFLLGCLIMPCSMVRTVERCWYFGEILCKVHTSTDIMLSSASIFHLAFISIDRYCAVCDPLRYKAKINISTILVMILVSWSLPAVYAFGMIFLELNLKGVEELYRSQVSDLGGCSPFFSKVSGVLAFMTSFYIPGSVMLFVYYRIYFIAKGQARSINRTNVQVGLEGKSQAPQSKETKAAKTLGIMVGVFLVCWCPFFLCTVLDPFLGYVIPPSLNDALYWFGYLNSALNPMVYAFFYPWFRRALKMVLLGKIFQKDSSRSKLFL

Ki (mouse TAAR1) [nM] | Ki (rat TAAR1) [µM] | Structure (SMILES)
12.8 | 0.0208 | O=C(Nc1ccc(OC2CNC2)cc1)c1cnc(OCC(F)(F)F)nc1 [Example 19, N-(4-(azetidin-3-yloxy)phenyl)-2-(2,2,2-trifluoroethoxy)pyrimidine-5-carboxamide]
2.5 | 0.0026 | O=C(Nc1ccc(CC2(F)CNC2)cc1)Nc1cccc(Cl)c1 [Example 107, 1-(3-chlorophenyl)-3-[4-[(3-fluoroazetidin-3-yl)methyl]phenyl]urea]
1.9 | 0.0239 | COc1ccc(NC(=O)Nc2ccc(CC3(F)CNC3)cc2)cc1 [Example 106, 1-[4-[(3-fluoroazetidin-3-yl)methyl]phenyl]-3-(4-methoxyphenyl)urea]
336 | 1.18 | Cc1cc(C(=O)Nc2ccc(C[C@H]3NC[C@H]3F)cc2)nc(C(F)(F)F)n1 [Example 119, N-(4-(((2R,3R)-3-fluoroazetidin-2-yl)methyl)phenyl)-6-methyl-2-(trifluoromethyl)pyrimidine-4-carboxamide]
323 | 0.0824 | CCc1n[nH]c(C(=O)Nc2ccc(CC3(F)CNC3)cc2)c1Cl [Example 66, 4-chloro-3-ethyl-N-[4-[(3-fluoroazetidin-3-yl)methyl]phenyl]-1H-pyrazole-5-carboxamide]
161 | 0.139 | COc1ccc(NC(=O)Nc2ccc(SC3CNC3)cc2)cc1 [Example 111, 1-[4-(azetidin-3-ylsulfanyl)phenyl]-3-(4-methoxyphenyl)urea]
17.4 | 0.005 | CCc1n[nH]c(C(=O)Nc2ccc(C=C3CNC3)c(F)c2)c1C [Example 88, N-(4-(azetidin-3-ylidenemethyl)-3-fluorophenyl)-3-ethyl-4-methyl-1H-pyrazole-5-carboxamide]
8.7 | 0.0042 | O=C(Nc1ccc(CC2CNC2)cc1)Nc1ccc(C(F)(F)F)cc1 [Example 113, 1-[4-(azetidin-3-ylmethyl)phenyl]-3-[4-(trifluoromethyl)phenyl]urea]
13.4 | 0.0145 | CC(C)(C)c1n[nH]c(C(=O)Nc2ccc(OC3CNC3)cc2)c1Cl [Example 32, N-[4-(azetidin-3-yloxy)phenyl]-3-tert-butyl-4-chloro-1H-pyrazole-5-carboxamide]
27.7 | 0.0154 | COc1ccc(NC(=O)Nc2ccc(C=C3CNC3)cc2)cc1 [Example 117, 1-[4-(azetidin-3-ylidenemethyl)phenyl]-3-(4-methoxyphenyl)urea]
14.3 | 0.0943 | Cc1[nH]nc(C(=O)Nc2ccc(OC3CNC3)cc2)c1Br [Example 48, N-[4-(azetidin-3-yloxy)phenyl]-4-bromo-3-methyl-1H-pyrazole-5-carboxamide]
478 | 1.03 | O=C(Nc1ccccc1)c1ccc(OC2CNC2)cc1 [Example 20, 4-(azetidin-3-yloxy)-N-phenyl-benzamide]
23.2 | 0.61 | O=C(Nc1ccc(C[C@H]2NC[C@H]2F)cc1)c1cnc(C(F)(F)F)nc1 [Example 123, N-(4-(((2R,3R)-3-fluoroazetidin-2-yl)methyl)phenyl)-2-(trifluoromethyl)pyrimidine-5-carboxamide]
16.1 | 0.0238 | O=C(Nc1ccc(OC2CNC2)c(F)c1)c1cnc(C(F)(F)F)nc1 [Example 26, N-[4-(azetidin-3-yloxy)-3-fluoro-phenyl]-2-(trifluoromethyl)pyrimidine-5-carboxamide]
793 | 0.0998 | Brc1ccc(C=C2CNC2)cc1 [Example 50, 3-[(4-bromophenyl)methylene]azetidine]
3.3 | 0.0178 | O=C(Nc1ccc(OC2CNC2)cc1)c1[nH]nc(C2CC2)c1Cl [Example 13, N-(4-(azetidin-3-yloxy)phenyl)-4-chloro-3-cyclopropyl-1H-pyrazole-5-carboxamide]
52.9 | 0.0417 | COC1(Cc2ccc(NC(=O)c3cnc(C(F)(F)F)nc3)cc2)CNC1 [Example 74, N-[4-[(3-methoxyazetidin-3-yl)methyl]phenyl]-2-(trifluoromethyl)pyrimidine-5-carboxamide]
6.9 | 0.0099 | O=C(Nc1ccc(CC2(F)CNC2)cc1)c1cnc(C(F)(F)F)cn1 [Example 70, N-[4-[(3-fluoroazetidin-3-yl)methyl]phenyl]-5-(trifluoromethyl)pyrazine-2-carboxamide]
42.1 | 0.0361 | O=C(Nc1ccc(CC2(F)CNC2)cc1)c1cnc(OCC(F)(F)F)nc1 [Example 69, N-[4-[(3-fluoroazetidin-3-yl)methyl]phenyl]-2-(2,2,2-trifluoroethoxy)pyrimidine-5-carboxamide]
8.4 | 0.0099 | O=C(Nc1ccc(C=C2CNC2)cc1)c1ccnc(C(F)(F)F)c1 [Example 60, N-[4-(azetidin-3-ylidenemethyl)phenyl]-2-(trifluoromethyl)pyridine-4-carboxamide]
1.9 | 0.0016 | O=C(Nc1ccc(CC2(F)CNC2)cc1)Nc1ccc(C(F)(F)F)cc1 [Example 105, 1-[4-[(3-fluoroazetidin-3-yl)methyl]phenyl]-3-[4-(trifluoromethyl)phenyl]urea]
22.9 | 0.0224 | Cc1cc(C(=O)Nc2ccc(C[C@@H]3NC[C@@H]3F)cc2)nc(C(F)(F)F)n1 [Example 126, N-(4-(((2S,3S)-3-fluoroazetidin-2-yl)methyl)phenyl)-6-methyl-2-(trifluoromethyl)pyrimidine-4-carboxamide]
1990 | 0.552 | FC1(Cc2ccccc2)CNC1 [Example 46, 3-benzyl-3-fluoro-azetidine]
0.7 | 0.0026 | O=C(Nc1ccc(Cl)c(C(F)(F)F)c1)c1ccc(OC2CNC2)cc1 [Example 37, 4-(azetidin-3-yloxy)-N-(4-chloro-3-(trifluoromethyl)phenyl)benzamide]
2030 | 0.0672 | CCn1cc(Cl)c(C(=O)Nc2ccc(OC3CNC3)cc2)n1 [Example 22, N-[4-(azetidin-3-yloxy)phenyl]-4-chloro-1-ethyl-pyrazole-3-carboxamide]
77.7 | 0.66 | O=C(Nc1ccc(NC2CNC2)cc1)c1ccnc(C(F)(F)F)c1 [Example 3, N-[4-(azetidin-3-ylamino)phenyl]-2-(trifluoromethyl)pyridine-4-carboxamide]
3.5 | 0.0392 | CCc1n[nH]c(C(=O)Nc2ccc(OC3CNC3)cc2)c1Cl [Example 41, N-[4-(azetidin-3-yloxy)phenyl]-4-chloro-3-ethyl-1H-pyrazole-5-carboxamide]
16.1 | 0.0059 | O=C(Nc1ccc(CC2(F)CNC2)cc1)c1cnc(C(F)(F)F)nc1 [Example 55, N-[4-[(3-fluoroazetidin-3-yl)methyl]phenyl]-2-(trifluoromethyl)pyrimidine-5-carboxamide]

Structure (SMILES) | Ki (mouse TAAR1) [nM] | Ki (rat TAAR1) [µM]
O=C(Nc1ccc(C[C@H]2CCN2)cc1)c1cnc(C(F)(F)F)nc1 [Example 80, N-[4-[[(2S)-azetidin-2-yl]methyl]phenyl]-2-(trifluoromethyl)pyrimidine-5-carboxamide] | 27.2 | 0.026
O=C(Nc1ccc(C[C@@H]2NC[C@@H]2F)cc1)c1ccnc(C(F)(F)F)c1 [Example 104, N-(4-(((2S,3S)-3-fluoroazetidin-2-yl)methyl)phenyl)-2-(trifluoromethyl)isonicotinamide] | 10.8 | 0.0231
O=C(Nc1ccc(CC2(F)CNC2)cc1)c1n[nH]c(C2CC2)c1Cl [Example 56, 4-chloro-3-cyclopropyl-N-[4-[(3-fluoroazetidin-3-yl)methyl]phenyl]-1H-pyrazole-5-carboxamide] | 3.4 | 0.0151
COC1(Cc2ccc(NC(=O)c3ccc(Cl)nc3)cc2)CNC1 [Example 73, 6-chloro-N-[4-[(3-methoxyazetidin-3-yl)methyl]phenyl]pyridine-3-carboxamide] | 13.6 | 0.0543
O=C(Nc1ccc(SC2CNC2)cc1)c1cnc(C(F)(F)F)nc1 [Example 45, N-[4-(azetidin-3-ylsulfanyl)phenyl]-2-(trifluoromethyl)pyrimidine-5-carboxamide] | 35.5 | 0.129
O=C(Nc1ccc(OC2CNC2)cc1)c1[nH]nc(C2CC2)c1Br [Example 31, N-[4-(azetidin-3-yloxy)phenyl]-4-bromo-3-cyclopropyl-1H-pyrazole-5-carboxamide] | 3.6 | 0.0151
O=C(Nc1ccc(C[C@H]2NC[C@H]2F)cc1)c1ccnc(C(F)(F)F)c1 [Example 121, N-(4-(((2R,3R)-3-fluoroazetidin-2-yl)methyl)phenyl)-2-(trifluoromethyl)isonicotinamide] | 7 | 0.809
O=C(Nc1ccc(Cl)nc1)c1ccc(OC2CNC2)cc1 [Example 30, 4-(azetidin-3-yloxy)-N-(6-chloropyridin-3-yl)benzamide] | 19.1 | 0.527
CCc1n[nH]c(C(=O)Nc2ccc(C[C@H]3NC[C@H]3F)cc2)c1C [Example 103, 3-ethyl-N-(4-(((2R,3R)-3-fluoroazetidin-2-yl)methyl)phenyl)-4-methyl-1H-pyrazole-5-carboxamide] | 45.6 | 1.27
O=C(Nc1ccc(CC2(F)CNC2)cc1)c1cnc(OCC(F)(F)F)cn1 [Example 57, N-[4-[(3-fluoroazetidin-3-yl)methyl]phenyl]-5-(2,2,2-trifluoroethoxy)pyrazine-2-carboxamide] | 14.7 | 0.0369
O=C(Nc1ccc(C[C@H]2CCN2)cc1)c1ccc(Cl)cc1 [Example 71, N-[4-[[(2S)-azetidin-2-yl]methyl]phenyl]-4-chloro-benzamide] | 1 | 0.0065
O=C(Nc1ccc(OC2CNC2)cc1F)c1[nH]nc(C2CC2)c1Cl [Example 36, N-[4-(azetidin-3-yloxy)-2-fluoro-phenyl]-4-chloro-3-cyclopropyl-1H-pyrazole-5-carboxamide] | 13.9 | 0.029

— patent US10023559B2 (Hoffmann-La Roche Inc., priority 2014, dated 2018)
